Assay results published in patent US12419309B2, “Chemical composition for seed treatment” (Yara UK Limited, priority 2019, dated 2025).

System: seeds of leguminous crops
Assay: Liquid composition coated on seeds of leguminous crops, dried and sowed in soil
Assay type: in vivo
Details: monoethanolamine as component of the composition
Text: The liquid composition as disclosed herein was coated on seeds of leguminous crops and the seeds were dried and sowed in soil. The germination rate was increased as well as the number of nodules, the mass of roots and the amount of dry matter in the shoots.

**Q.** `NCCO` [Monoethanolamine] was tested. Which “Effect on the growth of nodules” value did it give?
**A.** no detrimental effect
